Measurements: the supplement of paper PMC10307832

Experiments:
Test in all cases: relative viability (nuclei count vs DMSO), 5 days (fraction); higher = more cells survive
XMD13-2 + OSI-027 = compound: C1CC1C(=O)NC2=NNC3=C2C=CC(=C3)C4=CC(=CC=C4)C(=O)NC5CC5 [XMD13-2] + COc1cccc2cc(-c3nc([C@H]4CC[C@H](C(=O)O)CC4)n4ncnc(N)c34)[nH]c12 [OSI-027] (partner 0.5 µM)
Summary of the method: (§1)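 Lung cancer cell lines, seeded in 1536-well plates, were treated the following day by pin tool with a single drug or with five library-drug doses (not always all listed) in √10 steps on top of a fixed anchor-drug dose. Cells were fixed and nuclei stained in one step after 5 days, and nuclei were counted. Relative viability is the nuclei count for treated wells divided by that for vehicle wells, reported as medians of duplicate plates.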

XMD13-2 + Decitabine = compound: C1CC1C(=O)NC2=NNC3=C2C=CC(=C3)C4=CC(=CC=C4)C(=O)NC5CC5 [XMD13-2] + Nc1ncn([C@H]2C[C@H](O)[C@@H](CO)O2)c(=O)n1 [Decitabine] (partner 2 µM)
Summary of the method: as §1

ALW-II-49-7 + Pemetrexed = compound: Cc1ccc(C(=O)Nc2cccc(C(F)(F)F)c2)cc1Nc1cncc(C(N)=O)c1 [ALW-II-49-7] + Nc1nc2[nH]cc(CCc3ccc(C(=O)N[C@@H](CCC(=O)O)C(=O)O)cc3)c2c(=O)[nH]1 [Pemetrexed] (partner 0.2 µM)
Summary of the method: as §1

Dasatinib + OSI-027 = compound: Cc1nc(Nc2ncc(C(=O)Nc3c(C)cccc3Cl)s2)cc(N2CCN(CCO)CC2)n1 [Dasatinib] + COc1cccc2cc(-c3nc([C@H]4CC[C@H](C(=O)O)CC4)n4ncnc(N)c34)[nH]c12 [OSI-027] (partner 0.5 µM)
Summary of the method: as §1

| Cell Line | relative viability (XMD13-2 + OSI-027; first compound 0.05 µM) | relative viability (XMD13-2 + OSI-027; first compound 0.1581 µM) | relative viability (XMD13-2 + OSI-027; first compound 0.5 µM) | relative viability (XMD13-2 + OSI-027; first compound 1.581 µM) | relative viability (XMD13-2 + OSI-027; first compound 5 µM) | relative viability (XMD13-2 + Decitabine; first compound 0.05 µM) | relative viability (XMD13-2 + Decitabine; first compound 0.1581 µM) | relative viability (XMD13-2 + Decitabine; first compound 0.5 µM) | relative viability (XMD13-2 + Decitabine; first compound 1.581 µM) | relative viability (XMD13-2 + Decitabine; first compound 5 µM) | relative viability (ALW-II-49-7 + Pemetrexed; first compound 0.08 µM) | relative viability (ALW-II-49-7 + Pemetrexed; first compound 0.253 µM) | relative viability (ALW-II-49-7 + Pemetrexed; first compound 0.8 µM) | relative viability (ALW-II-49-7 + Pemetrexed; first compound 2.53 µM) | relative viability (ALW-II-49-7 + Pemetrexed; first compound 8 µM) | relative viability (Dasatinib + OSI-027; first compound 0.005 µM) | relative viability (Dasatinib + OSI-027; first compound 0.01581 µM) | relative viability (Dasatinib + OSI-027; first compound 0.05 µM) | relative viability (Dasatinib + OSI-027; first compound 0.1581 µM) | relative viability (Dasatinib + OSI-027; first compound 0.5 µM) |
| --- | --- | --- | --- | --- | --- | --- | --- | --- | --- | --- | --- | --- | --- | --- | --- | --- | --- | --- | --- | --- |
| NCI-H1755 | 0.798 | 0.699 | 0.797 | 0.576 | 0.775 | 0.703 | 0.719 | 0.665 | 0.736 | 0.667 | 0.456 | 0.48 | 0.4 | 0.416 | 0.403 | 0.679 | 0.604 | 0.507 | 0.384 | 0.191 |
| SK-MES-1 | 0.597 | 0.571 | 0.618 | 0.564 | 0.673 | 0.429 | 0.409 | 0.373 | 0.339 | 0.455 | 0.888 | 0.964 | 0.916 | 0.867 | 0.686 | 0.738 | 0.57 | 0.409 | 0.21 | 0.14 |
| NCI-H2126 | 0.8 | 0.665 | 0.666 | 0.702 | 0.837 | 0.598 | 0.56 | 0.545 | 0.539 | 0.619 | 0.733 | 0.708 | 0.654 | 0.661 | 0.755 | 0.722 | 0.551 | 0.623 | 0.611 | 0.307 |
| EPLC-272H | 0.313 | 0.257 | 0.281 | 0.238 | 0.247 | 0.363 | 0.391 | 0.485 | 0.339 | 0.314 | 0.315 | 0.382 | 0.289 | 0.34 | 0.206 | 0.33 | 0.338 | 0.252 | 0.29 | 0.091 |
| NCI-H1975 | 0.829 | 0.776 | 0.824 | 0.786 | 0.774 | 0.373 | 0.381 | 0.412 | 0.414 | 0.333 | 0.312 | 0.306 | 0.266 | 0.296 | 0.244 | 0.608 | 0.589 | 0.556 | 0.32 | 0.201 |
| NCI-H3122 | 1.02 | 0.924 | 1.02 | 0.917 | 0.7 | 0.403 | 0.439 | 0.414 | 0.372 | 0.395 | 0.201 | 0.174 | 0.207 | 0.216 | 0.186 | 0.994 | 1.01 | 1.05 | 0.921 | 0.82 |
| COR-L 105 | 0.83 | 0.658 | 0.668 | 0.66 | 0.707 | 0.747 | 0.717 | 0.755 | 0.66 | 0.638 | 1.16 | 1.06 | 1.21 | 0.959 | 0.974 | 0.555 | 0.467 | 0.418 | 0.262 | 0.222 |
| BEN | 0.309 | 0.276 | 0.312 | 0.291 | 0.327 | 0.803 | 0.705 | 0.719 | 0.648 | 0.705 | 0.8 | 0.88 | 0.757 | 0.902 | 0.81 | 0.262 | 0.233 | 0.218 | 0.214 | 0.187 |
| NCI-H1915 | 0.756 | 0.591 | 0.645 | 0.548 | 0.595 | 0.261 | 0.268 | 0.251 | 0.256 | 0.268 | 0.451 | 0.546 | 0.49 | 0.457 | 0.375 | 0.559 | 0.516 | 0.463 | 0.187 | 0.164 |
| NCI-H650 | 0.522 | 0.512 | 0.599 | 0.474 | 0.522 | 0.311 | 0.315 | 0.329 | 0.296 | 0.306 | 0.985 | 0.962 | 0.99 | 0.917 | 0.82 | 0.591 | 0.524 | 0.493 | 0.303 | 0.265 |
| NCI-H1650 | 0.651 | 0.609 | 0.747 | 0.555 | 0.697 | 0.363 | 0.457 | 0.413 | 0.409 | 0.52 | 0.352 | 0.379 | 0.383 | 0.378 | 0.406 | 0.571 | 0.355 | 0.318 | 0.219 | 0.171 |
| NCI-H2009 | 0.69 | 0.563 | 0.815 | 0.634 | 0.66 | 0.372 | 0.394 | 0.427 | 0.449 | 0.387 | 0.971 | 1.14 | 0.955 | 0.751 | 0.749 | 0.698 | 0.501 | 0.407 | 0.189 | 0.158 |
| COR-L23 | 0.915 | 0.78 | 0.838 | 0.711 | 0.864 | 0.438 | 0.399 | 0.513 | 0.458 | 0.376 | 0.198 | 0.208 | 0.206 | 0.204 | 0.177 | 0.628 | 0.612 | 0.61 | 0.46 | 0.375 |
| NCI-H460 | 0.939 | 0.837 | 0.713 | 0.723 | 0.645 | 0.607 | 0.513 | 0.54 | 0.552 | 0.454 | 0.0507 | 0.0651 | 0.0651 | 0.0782 | 0.0738 | 0.549 | 0.474 | 0.405 | 0.387 | 0.17 |
| NCI-H522 | 0.71 | 0.692 | 0.742 | 0.701 | 0.658 | 0.615 | 0.654 | 0.633 | 0.546 | 0.721 | 0.909 | 0.874 | 0.958 | 1.07 | 1.01 | 0.72 | 0.69 | 0.643 | 0.596 | 0.632 |
| LCLC-103H | 0.588 | 0.497 | 0.47 | 0.509 | 0.506 | 0.712 | 0.748 | 0.765 | 0.719 | 0.756 | 0.533 | 0.502 | 0.477 | 0.462 | 0.419 | 0.437 | 0.38 | 0.403 | 0.38 | 0.146 |
